In patent publication US4696920A, “Certain 2-substituted 1,3-propylidenediphosphonate derivatives, pharmaceutical compositions containing them and their use as antihypertensive agents” (priority 1984, dated 1987):
Blank lines part the entries; values can stand above or below the molecule they belong to.

Assays:
[1] = tested on: calcium channel binding site for [^3 H]-Nitrendipine (rat brain membranes); test: [^3 H]-Nitrendipine binding to rat brain membranes; design: species or system rat (male Wistar); conditions: Table 1a; for Specifically bound [^3 H]-Nitrendipine % of control value: compound concentration 1.0 μM; for Bound ^3 H at 1.0 μM / Bound ^3 H at 0.1 μM: ratio of [^3 H]-Nitrendipine bound at 1.0 and 0.1 μM compound
Method: (§1) Diltiazem hydrochloride was a generous gift from Goedecke A. G.
Suitable dilutions were made in 50 mM Tris-HCl buffer (pH 7.4) containing 150 mM NaCl and 1 mM CaCl2. The ethanol concentration in the final assay never exceeded 0.1%.
(§2) The purity of the radioligand and of the various agents tested was monitored by thin layer chromatography on silica gel plates.
(§3) The following procedure was adapted from Bellemann et al (Proc. Nat. Acad. Sci. 80, 2356, 1983), and Gould et al (Proc. Nat. Acad. Sci. 79, 3656, 1982).
(§4) Adult male Wistar rats weighing 250-300 g were anesthetized with carbon dioxide prior to decapitation. The brain was removed then immersed in ice-cold 0.32M sucrose and washed 2-3 times with fresh solution. Cerebral cortex was minced and homogenized (Potter-Elvehjem homogenizer) in 10 volumes of ice-cold sucrose solution. The homogenate was centrifuged (4° C.) at 1000×g for 15 minutes. The resulting supernatant was then centrifuged at 90000×g (30 minutes) and the pellet was washed twice with 20 ml ice-cold 50 mM Tris-HCl pH 7.4.
(§5) The final pellet was resuspended in 50 mM Tris-HCl pH 7.4/150 mM NaCl/1 mM CaCl2 to give a protein concentration of 4 mg/ml.
(§6) The membrane suspension was kept on ice until used. Binding assays were performed in subdued light to prevent dihydropyridine breakdown. Membrane protein (400 μg/tube) was incubated in 50 mM Tris-HCl buffer (pH 7.4)/150 mM NaCl/1 mM CaCl2 with the indicated concentrations of radioligand and test compounds or known calcium antagonists, in a total volume of 2 ml. After the indicated time intervals, the reaction was terminated by rapid filtration through Whatman GF/B glass fiber filters (2.4 cm diameter) on a Millipore filter holder. The assay tube was rinsed with 2 ml ice-cold 50 mM Tris-HCl pH (7.4) and the precipitate was further washed with 2×5 ml of the same buffer.
(§7) Filters were dried under a heat lamp and were extracted with 10 ml of liquid scintillation cocktail (Toluene/Triton X-100, 2/1 containing 4 g Omnifluor/1) prior to tritium determination at 48% counting efficiency.
(§8) Assays were performed in duplicate or triplicate.
(§9) Data were expressed as percent specific [^3 H]-Nitrendipine binding relative to the established control value.
(§10) Compound activity in the [^3 H]-Nitrendipine binding assay was evaluated by using the following criteria:
(§11) 1. [^3 H]-Nitrendipine binding at 1.0 μM compound final concentration was either below 95% or above 105% of the control value determined in absence of compound.
2. […] This ratio is indicative of a dose response relationship within the compound concentration range tested, when the value differs appreciably from 1.0.

[2] = tested on: rat trachea contraction induced by KCl depolarization; test: KCl-induced rat trachea contraction; design: species or system rat (male SHR, Okamoto-Aoki); conditions: Rattus norvegicus, 40 min, read-out: Contraction (% max.)
Method: Spontaneously hypertensive male rats (SHR) Okamoto-Aoki Strain, weighing 300-400 g were used in this study. They were killed by bleeding after Pentobarbital anesthesia (Nembutal, Abbott Co, 40 mg/kg). Their entire trachea was quickly removed and dissected free of fat and connective tissue in Krebs-Ringer solution. A strip (4 mm×40 mm), obtained by spirally cutting the trachea, was immediately suspended in a 50 ml Krebs-Ringer solution and continuously bubbled with a O2 /CO2 (95/5) mixture. Bath temperature was maintained at 37±1° C. The composition (mM) of the Krebs-Ringer solution modified by Nghiem, was as follows: NaCl, (118.0); KCl, (4.7); CaCl2, (2.5); MgCl2, (1.18); NaHCO3, (12.5); KH2 P04, (1.18); glucose, (5.5) in bidistilled water (pH 7.4). Each strip was equilibrated under initial tension (1.5-2 g) for 1-2 hours and the bath solution changed every 30 min. A contractile or relaxant response was isometrically measured with a force-displacement transducer (Ugo-Basile) and recorded on a polygraph (Beckman).
After equilibration, KCl was added to the bath at 65 mM final concentration. This concentration produced maximum trachea contraction. Under these conditions, a plateau phase showing a tonic sustained contraction was reached within 30 minutes. Drugs were added 30 minutes after the plateau phase has been reached (final concentration=1.0 μM). […] Recordings of the residual trachea contraction were made 40 minutes after drug addition to the bathing fluid. The initial KCl induced contraction was taken as the maximum KCl response (100%). Results were expressed as % of maximal contraction. Nifedipine, Prenylamine, Flunarizine and Diltiazem were used as reference standards to validate this assay.
All 1,3-diphosphonates and drugs were dissolved in saline (0.9% NaCl) except when water insoluble, then the compounds were dissolved in 2% ethanol. The final concentration of ethanol used has been shown not to interfere with the assay.
Results are expressed as mean values±SEM, the Student's t-test was used for statistical analysis.

[3] = tested on: mean blood pressure in rat; test: Acute intravenous hypotensive activity in anesthetized rats; type: in vivo, rat (male Wistar); conditions: Rattus norvegicus, iv, read-out: Decrease in mean blood pressure (% pretest)
Method: Male Wistar rats were anesthetized with Pentobarbital (Nembutal, 60 mg/kg i.p.) and heparinized (5 mg/kg i.p.). After tracheotomy the right carotid was cannulated (catheter PE 50); blood pressure was measured with a pressure transducer (Statham P 23 db) and recorded on a polygraph (Beckman).
Animals received 0.5 and 1.5 mg/kg of the test compounds. Less than 100 μl of test compounds dissolved in 0.9% saline were injected in the jugular vein. Highly water insoluble compounds were suspended in 2% Tween-80. Injection of the vehicle alone had no detectable hypotensive effect.
Results presented are expressed as percent decrease in initial mean blood pressure (Mean±SEM).

[4] = tested on: [^3 H]-PN-200 110 (dihydropyridine) binding site of calcium channel, rat brain membranes; test: [^3 H]-PN-200 110 binding to rat brain membranes; design: species or system rat (male Wistar); conditions: Table 1b; for Specifically bound [^3 H]-PN-200 110 % of control value: compound concentration 1.0 μM; for Bound ^3 H at 1.0 μM / Bound ^3 H at 0.1 μM: ratio of [^3 H]-PN-200 110 bound at 1.0 and 0.1 μM compound
Method: as §1
Water insoluble compounds were dissolved in absolute ethanol to give 10 mM or 2.5 mM stock solutions. Suitable dilutions were made in 50 mM Tris-HCl buffer (pH 7.4) containing 150 mM NaCl and 1 mM CaCl2. The ethanol concentration in the final assay never exceeded 0.1%.
as §2, §3, §4, §5, §6, §7, §8, §9, §10, §11
2. The ratio obtained by dividing the amount of specifically found [^3 H]-Nitrendipine at 1.0 μM compound final concentration by the value obtained at 0.1 μM test compound, was smaller than 0.9 or greater than 1.1. This ratio is indicative of a dose response relationship within the compound concentration range tested, when the value differs appreciably from 1.0.
Note: In some experiments [^3 H]-PN200 110, a new and commercially available specific dihydropyridine was used instead of [^3 H]-Nitrendipine.

[5] = tested on: drug receptor sites associated with calcium channels; conditions: known calcium antagonists; cited from earlier work

Compound: CCOP(=O)(CC(Cc1ccc(Cl)cc1)CP(=O)(OCC)OCC)OCC [Compound 30]
- Specifically bound [^3 H]-Nitrendipine % of control value [1]: 99 % of control value
- Bound ^3 H at 1.0 μM / Bound ^3 H at 0.1 μM [1]: 1.003
- activity at 1 µM [2]: 90%
- inhibition in vivo at 0.5 mg/kg [3]: 17%
- inhibition in vivo at 1.5 mg/kg [3]: 34.4 ± 5.1%

Compound: CCCOP(=O)(CC(CCOc1ccccc1)CP(=O)(OCCC)OCCC)OCCC [Compound 52]
- Specifically bound [^3 H]-PN-200 110 % of control value [4]: 9 % of control value
- Bound ^3 H at 1.0 μM / Bound ^3 H at 0.1 μM [4]: 0.227

- Specifically bound [^3 H]-PN-200 110 % of control value [4]: 13 % of control value
- Bound ^3 H at 1.0 μM / Bound ^3 H at 0.1 μM [4]: 0.294
Compound: C=CCCOP(=O)(CC(CCOc1ccccc1)CP(=O)(OCCC=C)OCCC=C)OCCC=C [Compound 110]

Compound: CCCCOP(=O)(CC(CCCc1ccc([N+](=O)[O-])cc1[N+](=O)[O-])CP(=O)(OCCCC)OCCCC)OCCCC [Compound 98]
- Specifically bound [^3 H]-PN-200 110 % of control value [4]: 19 % of control value
- Bound ^3 H at 1.0 μM / Bound ^3 H at 0.1 μM [4]: 0.780

Compound: CCCCOP(=O)(CC(Cc1cc2c(cc1Cl)OCO2)CP(=O)(OCCCC)OCCCC)OCCCC [Compound 99]
- Specifically bound [^3 H]-PN-200 110 % of control value [4]: 56 % of control value
- Bound ^3 H at 1.0 μM / Bound ^3 H at 0.1 μM [4]: 0.627

Compound: C[C@](N)(Cc1ccc(O)c(O)c1)C(=O)O [Methyl Dopa, reference compound]
- inhibition in vivo at 1 mg/kg [3]: 0%

Compound: COc1ccc(CCN(C)CCCC(C#N)(c2cc(OC)c(OC)c(OC)c2)C(C)C)cc1OC [Compound D-600]
- effect on [^3 H]-Nitrendipine binding (in words) [5]: reduce [^3 H]-Nitrendipine binding affinity

Compound: CCOP(=O)(CC(CCc1ccccc1)CP(=O)(OCC)OCC)OCC [Compound 26]
- Specifically bound [^3 H]-Nitrendipine % of control value [1]: 89 % of control value
- Bound ^3 H at 1.0 μM / Bound ^3 H at 0.1 μM [1]: 1.018
- inhibition in vivo at 0.5 mg/kg [3]: 18.1 ± 3%
- inhibition in vivo at 1.5 mg/kg [3]: 41.6 ± 1.3%

Compound: CCCCOP(=O)(CC(CCOc1cc(C)ccc1C)CP(=O)(OCCCC)OCCCC)OCCCC [Compound 77]
- Specifically bound [^3 H]-PN-200 110 % of control value [4]: 19 % of control value
- Bound ^3 H at 1.0 μM / Bound ^3 H at 0.1 μM [4]: 0.337

Compound: CCOP(=O)(CC(Cc1cc(OC)c(OC)c(OC)c1)CP(=O)(OCC)OCC)OCC [Compound 36]
- Specifically bound [^3 H]-Nitrendipine % of control value [1]: 100 % of control value
- Bound ^3 H at 1.0 μM / Bound ^3 H at 0.1 μM [1]: 0.966
- inhibition in vivo at 0.5 mg/kg [3]: 39.9 ± 1.6%

Compound: CC(C)NCC(O)COc1cccc2ccccc12 (stereo not drawn) [Propranolol, reference compound]
- inhibition in vivo at 1 mg/kg [3]: 11.8 ± 1.1%

Compound: CCCCOP(=O)(CC(Cc1ccc(CN2CCN(c3ccccc3)CC2)cc1)CP(=O)(OCCCC)OCCCC)OCCCC [Compound 104]
- Specifically bound [^3 H]-PN-200 110 % of control value [4]: 59 % of control value
- Bound ^3 H at 1.0 μM / Bound ^3 H at 0.1 μM [4]: 0.687
